Measured values as given in patent publication US4376785A, “Cyclopropanecarboxylates and a low fish toxic insecticide and/or acaricide containing them” (priority 1980, dated 1983).
Where two headings read alike, the source gives them in different places.

Columns and labels:
[1] = Toxicity to killifish (TLm48), Test example 1; assay type: in vivo, Oryzias latipes; details: for selectivity ratio: in vivo, TLm48 divided by concentration in water at green rice leafhopper LC50, read-out: Safety coefficient to fishes (a)/(b); for LC50 at 48 h: water, killifish, medium tolerance limit, read-out: Toxicity to fishes TLm48 (a)
Protocol: Toxicity to killifish (Oryzias latipes) was tested accordig to the test method for toxicity to fishes described in Notification B No. 2735 of the Ministry of Agriculture and Forestry (Nov. 25, 1965). Namely, each of the present compounds (1), (2), (4), (5), (6), (8), (9), (11) and reference compounds was dissolved or suspended in "Tween 80" and diluted successively with dechlorinated tap water. Ten killifish (0.2-0.3 g per fish) were released in a 10-liter glass vessel containing 5 liters of each preparation.
In order to make it clearer that the present compounds have a low toxicity to fishes as well as a high insecticidal activity, a safety coefficient to fishes was calculated from the test results of toxicity to fishes and insecticidal activity. [formula]
A detailed explanation will be given to a method of how to calculate the safety coefficient. In the case of green rice leafhoppers, calculation was based on the concentration of active ingredient in water obtained by applying a test solution containing the active ingredient in an amount corresponding to LC50 (ppm) to a flooded paddy field 5 cm deep at a rate of 100 liter/10 are, provided that all the active ingredient applied entered the water.
For example, the safety coefficient to fishes of the present compound (1) is calculated as follows: The quantity of water in a flooded paddy field 5 cm deep and 10 are in area is 50 tons; when a test solution containing the active ingredient in an amount corresponding to LC50 (ppm) is added to the paddy field at a rate of 100 liter/10 are the concentration of the active ingredient in water (hereinafter referred to as (b)) is 0.008 pp; as the toxicity to fishes [TLm48 (ppm)] (hereinafter referred to as (a)) is >2.0 ppm, said coefficient can be calculated by dividing (a) by (b). In this case, the coefficient is >250, which means that the present compound (1) has a safety higher than 250-fold.

[2] = test system: green rice leafhopper (Nephotettix cincticeps), R-strain; assay: Insecticidal activity against green rice leafhopper, sprayed rice plants, Test example 1; assay type: in vivo; details: green rice leafhopper female adults, spray on rice plant, 26° C., 24 hours
Protocol: The emulsifiable concentrates of the present compounds and reference compounds prepared in Preparation example 1 were each formulated into test solutions having four different concentrations of active ingredient between 500 ppm and 0.5 ppm. Each test solution was sprayed on a rice plant in a 180-ml plastic cup which had elapsed one month after sowing, at a rate of 15 ml/2 cups by means of a turn table. After air-drying, the rice plate was covered with a wire-screen cage, and 15 female adults of green rice leafhopper (Nephotettix cincticeps) (a strain resistant to carbamates and organo-phosphates, hereinafter referred to as R-strain) were liberated therein. The plant was placed in an artificial climate chamber kept at 26° C. After 24 hours, the dead and alive were examined. The median lethal concentratin [LC50 (ppm)] was calculated from the mortality determined by 3 replications. […]

[3] = test system: killifishes (Oryzias latipes); assay: Simulated paddy field box test, killifish survival, Test example 6; assay type: in vivo; details: wettable powder, 100 ppm, 100 liter/10 are, water depth 5 cm, after 48 hours
Protocol: (§1) The wettable powder of each of the present compounds (1), (3), (5), (6) and (11) prepared in Preparation example 4 was diluted with water so that the concentration of active ingredient was 100 ppm. Soil was placed in a plastic box [5 m×5 m×2 m (deep)] to a level of 50 cm from the bottom, and rice plants about 50 cm high were transplanted at invervals of 50 cm. Water was then placed in the box so that water depth was 5 cm, and 20 killifishes (Oryzias latipes) were liberated therein. Thereafter, the above dilute solution was sprayed on the box at a rate of 100 liter/10 are. The solution fell on the rice plants as well as on the water surface.
(§2) One hour after treatment, 100 female adults of green rice leafhopper (Nephotettix cincticeps) were liberated in the box which was immediately covered with a net.

[4] = test system: CSMA strain housefly (Musca domestica); assay: Topical application to housefly adults, Test example 8; assay type: in vivo; details: topical to ventral thorax, 0.5 μl/adult, female adults, 24 hours
Protocol: The present compounds as below and reference compounds were each diluted with acetone into test solutions having four different concentrations of active ingredient. Each test solution was topically applied to the ventral throrax of CSMA strain housefly female adults (Musca domestica), at a rate of 0.5 μl/adult by means of a microapplicator.
The adults were then liberated in a polyethylene cup and fed with milk, sugar and water. After 24 hours, the dead and alive were observed. The median lethal dosage (LD50 μg/adult) was obtained from the morality (3 replications).

[5] = test system: green rice leafhopper (Nephotettix cincticeps); assay: Simulated paddy field box test, green rice leafhopper, Test example 6; assay type: in vivo; details: wettable powder, 100 ppm, 100 liter/10 are, after 48 hours
Protocol: as §1, §2

[6] = test system: housefly (Musca domestica); assay: Housefly mortality, treated filter paper with bait, Test example 7; assay type: in vivo; details: 0.7 ml on filter paper, housefly female adults, 48 hours
Protocol: The emulsifiable concentrate obtained in preparation Example 1 was diluted 200 times with water (corresponding to 500 ppm of the active ingredient). On the bottom a polyethylene cup of 5.5 cm in diameter was placed a piece of filter paper of the same size, and 0.7 ml of the above dilute liquor was dropped on the filter paper. Sucrose (30 mg) was placed on the paper as bait. Thereafter, 10 housefly female adults (Musca domestica) were liberated in the cup which was then covered with a lid. After 48 hours, the dead and alive were counted to obtain mortality (4 replications).

[7] = test system: carmine mites (Tetranychus cinnabarinus); assay: Damage to rice plants by carmine mites, Test example 4; assay type: in vivo; details: 500 ppm spray, after 10 days
Protocol: The emulsifiable concentrate of each of the present compounds (3), (5), (9) and (11) prepared in Preparation example 1 was diluted with water so that the concentration of the active ingredient was 500 ppm. The dilute liquor was thoroughly sprayed on rice plants (grown in a 1/10,000 are Waner's pot) on which carmine mites (Tetranychus cinnabarinus) in all stages were made parasitic.

[8] = test system: green rice leafhopper (Nephotettix cincticeps); assay: Residual effect test, Text example 5; assay type: in vivo; details: 20 cc per pot, 24 hours
Protocol: The emulsifiable concentrate of each of the present compounds (5) and (11) prepared in Preparation example 1 was diluted with water so that the conentration of active ingredient was 400 ppm. Thereafter, 20 cc of the dilute solution was sprayed on rice plants grown in a 1/10,000 are Wagner's pot. The rice plants were air-dried and covered with a wire-screen cage, and 15 female adults of green rice leafhopper (Nephotettix cincticeps) were liberated therein. After 24 hours, the dead and alive were examined to obtain mortality. In order to examine the residual effect, the pot was then left as it was for 7 days, and the test insects were liberated in the same manner as above. After 24 hours, the mortality was examined. The experiment was carried out in a greenhouse and the number of replications was three.

[9] = test system: yellow fever mosquito (Aedes aegypti); assay type: in vivo; details: 50 mg of granules (Preparation example 6) in 100 ml water, full grown larvae, after 24 hours
Protocol: Fifty milligrams of each of the granules of the present compounds (5) and (11) obtained in Preparation example 6 was placed in a 100-ml beaker containing 100 ml of distilled water, and 30 full grown larvae of yellow fever mosquito (Aedes aegypti) were liberated therein. After 24 hours, 100% of the larvae could be killed.

Structure (SMILES) | selectivity ratio [1] | LC50 at 48 h [1] | LC50 [2] | LD50 [4] | mortality at 500 ppm [6] | further results
CC1(C)[C@H](C(=O)OC(C#N)c2ccc(F)c(Oc3ccc(Br)cc3)c2)[C@@H]1C(Br)C(Cl)(Cl)Br (relative stereo) [compound (2), 3-(4-Bromophenoxy)-4-fluoro-α-cyanobenzyl dl-cis-2,2-dimethyl-3-(1,2-dibromo-2,2-dichloroethyl)cyclopropanecarboxylate] | > 167 | > 2 mg/L | 6.0 ppm |  |  | 
CC1(C)[C@H](C(=O)OC(C#N)c2ccc(F)c(Oc3ccc(Cl)cc3)c2)[C@H]1C(Br)C(Cl)(Cl)Br (relative stereo) [compound (6), 3-(4-Chlorophenoxy)-4-fluoro-α-cyanobenzyl dl-trans-2,2-dimethyl-3-(1,2-dibromo-2,2-dichloroethyl)cyclopropanecarboxylate] | > 200 | > 1 mg/L | 2.7 ppm | 0.031 μg/adult | 100% | killifishes alive [3]: all of the killifishes were alive; green rice leafhoppers alive [5]: no alive green rice leafhoppers were found
CC1(C)[C@H](C(=O)OC(C#N)c2ccc(F)c(Oc3ccc(Cl)cc3)c2)[C@@H]1C(Br)C(Cl)(Cl)Br (relative stereo) [compound (7), 3-(4-Chlorophenoxy)-4-fluoro-α-cyanobenzyl dl-cis-2,2-dimethyl-3-(1,2-dibromo-2,2-dichloroethyl)cyclopropanecarboxylate] |  |  |  |  | 100% | 
CC1(C)C(C(=O)OC(C#N)c2ccc(F)c(Oc3ccc(Br)cc3)c2)C1C(Br)C(Cl)(Cl)Br (stereo not drawn) [(11), 3-(4-bromphenoxy)-4-fluoro-α-cyanobenzyl 2,2-dimethyl-3-(1,2-dibromo-2,2-dichloroethyl)cyclopropanecarboxylate] | > 200 | > 2 mg/L | 4.7 ppm |  |  | killifishes alive [3]: all of the killifishes were alive; damage to rice plants by carmine mites [7]: the spreading of the damage could be prevented; mortality at 400 ppm ([8]; insects liberated 7 days after treatment, read-out: Mortality, effect 7 days after treatment): 100%; mortality at 400 ppm ([8]; read-out: Mortality, effect immediately after treatment): 100%; larvae killed [9]: 100%; green rice leafhoppers alive [5]: no alive green rice leafhoppers were found
CC1(C)C(C(=O)OC(C#N)c2cccc(Oc3ccccc3)c2)C1C(Br)C(Cl)(Cl)Br (stereo not drawn) [(A), reference compound] | 50 |  | 5.0 ppm |  |  | 
CC1(C)C(C=C(Cl)Cl)C1C(=O)OC(C#N)c1ccc(F)c(Oc2ccccc2)c1 (stereo not drawn) [(B), reference compound] | < 2 | < 0.01 mg/L | 2.5 ppm |  |  | 
CC1(C)C(C(=O)OC(C#N)c2cccc(Oc3ccc(Cl)cc3)c2)C1C(Br)C(Cl)(Cl)Br (stereo not drawn) [(C), reference compound] |  |  |  | 0.062 μg/adult |  | 
CC1(C)C(C(=O)OC(C#N)c2cccc(Oc3ccc(Br)cc3)c2)C1C(Br)C(Cl)(Cl)Br (stereo not drawn) [(D), reference compound] |  |  |  | 0.063 μg/adult |  | 
CC1(C)C(C(=O)OC(C#N)c2ccc(F)c(Oc3ccc(Br)cc3)c2)C1C(Br)C(Br)(Br)Br (stereo not drawn) [compound (3), 3-(4-Bromophenoxy)-4-fluoro-α-cyanobenzyl 2,2-dimethyl-3-(1,2,2,2-tetrabromoethyl)cyclopropanecarboxylate] |  |  |  |  |  | killifishes alive [3]: all of the killifishes were alive; damage to rice plants by carmine mites [7]: the spreading of the damage could be prevented; green rice leafhoppers alive [5]: no alive green rice leafhoppers were found
CC1(C)[C@H](C(=O)OC(C#N)c2ccc(F)c(Oc3ccc(Br)cc3)c2)[C@@H]1C(Br)C(Br)(Br)Br (stereo partly drawn) [compound (4), 3-(4-Bromophenoxy)-4-fluoro-α-cyanobenzyl d-cis-2,2-dimethyl-3-(1,2,2,2-tetrabromoethyl)cyclopropanecarboxylate] | > 154 | > 2 mg/L | 6.3 ppm |  |  | 
CC1(C)C(C(=O)OC(C#N)c2ccc(F)c(Oc3ccc(Cl)cc3)c2)C1C(Br)C(Br)(Br)Br (stereo not drawn) [compound (8), 3-(4-Chlorophenoxy)-4-fluoro-α-cyanobenzyl 2,2-dimethyl-3-(1,2,2,2-tetrabromoethyl)cyclopropanecarboxylate] | > 83 | > 1 mg/L | 5.8 ppm |  | 100% | 
CC1(C)[C@H](C(=O)OC(C#N)c2ccc(F)c(Oc3ccc(Cl)cc3)c2)[C@H]1C(Br)C(Cl)(Cl)Br (stereo partly drawn) [compound (9), 3-(4-Chlorophenoxy)-4-fluoro-α-cyanobenzyl d-trans-2,2-dimethyl-3-(1,2-dibromo-2,2-dichloroethyl)cyclopropanecarboxylate] | > 333 | > 1 mg/L | 1.5 ppm | 0.018 μg/adult | 100% | damage to rice plants by carmine mites [7]: the spreading of the damage could be prevented
CC1(C)[C@H](C(=O)OC(C#N)c2ccc(F)c(Oc3ccc(Cl)cc3)c2)[C@@H]1C(Br)C(Cl)(Cl)Br (stereo partly drawn) [compound (10), 3-(4-Chlorophenoxy)-4-fluoro-α-cyanobenzyl d-cis-2,2-dimethyl-3-(1,2-dibromo-2,2-dichloroethyl)cyclopropanecarboxylate] |  |  |  | 0.030 μg/adult | 100% | 
